Peptide text beside a SMILES is read from it.
Columns and labels:
[1] = tested on: western corn rootworm (WCR) larvae; experiment: Oral toxicity screening of CPPs in artificial diet; format: in vivo; conditions: first instar WCR larvae, mortality and stunting
Method: Briefly, CPPs were incorporated into standard WCR artificial diet in 96-well microtiter plate format. A 25 μL aliquot of dosing solution was combined with 75 μL molten low-melt WCR diet and shaken on an orbital shaker to mix. Once diet solidified, preconditioned first instar WCR (freshly-hatched insects placed on neutral diet for 24 hours prior to transfer to test diet) were added to the diet plates at a rate of 1 insect·well^−1. Plates were placed inside an incubator (Percival Scientific, Inc., Perry, IA) set to 27° C., 65% RH, and a 24-hour dark cycle. The assay was scored for mortality and stunting affects after 7 and 12 days, without diet refresh, on a 0-3 scale, where 3=mortality, 2=severe stunting, 1=stunting, 0=no affect when compared with untreated larvae. The assay was repeated three times and end-results were tabulated using all three replicates and converted to percentages (Table 5).

[2] = tested on: dvssj1 frag 1 dsRNA; experiment: CPP·dsRNA complex formation by gel shift assay; format: binding; conditions: 770 nM unlabeled dsRNA (2100 ng); molar ratio 1:4 through 8:1; 1.2% TE agarose gel
Method: FIG. 2 Formation of CPP·dsRNA complex as assessed by gel shift assay. FIG. 2A Reactions were assembled as described in Example 3, with increasing amounts of MPG-YFP added to […] Cy3-dsRNA (595.8 ng), from a molar ratio (CPP:dsRNA) of 1:4 through 8:1. After incubation, 20 μL reaction volumes were each mixed with 2 μL 10% molecular biology grade glycerol and electrophoresed on a 1.2% Tris-EDTA (TE) agarose gel and stained with Invitrogen™ SYBR Safe DNA Gel Stain (Thermo Fisher Scientific, Waltham, MA). Effects on mobility of the Cy3-dsRNA band are observed upon increasing molar ratios of MPG-YFP. […] The large relative size of MPG-YFP causes a large band shift. FIG. 2B Reactions were assembled as described in Example 3, with increasing amounts of CyLoP added to 770 nM dsRNA (2100 ng), from a molar ratio of 1:4 through 8:1. […] FIG. 2C Results of MPG-YFP binding to Cy3-dsRNA (described in 2A) assessed by DLS. […] Readings were collected using default settings for protein molecules, at 25° C. with a 15 second equilibration stage, using a Zetasizer Ultra and accompanying software (Malvern Panalytical, Malvern, United Kingdom). The dispersant was adjusted to account for the specific viscosity and refractive index of the complex formation solution prior to calculation of detected sizes. […]

N=C(N)NCCC[C@H](NC(=O)[C@H](Cc1c[nH]c2ccccc12)NC(=O)[C@H](CCCNC(=N)N)NC(=O)[C@@H](N)CS)C(=O)N[C@@H](Cc1c[nH]c2ccccc12)C(=O)N[C@@H](CCCCN)C(=O)N[C@@H](CS)C(=O)N[C@@H](CS)C(=O)N[C@@H](CCCCN)C(=O)N[C@@H](CCCCN)C(=O)O [CyLoP-1, CRWRWKCCKK] (H-CRWRWKCCKK-OH; N-terminus and C-terminus assumed)
Affected (%) ([1]; 0.195 ppm in artificial diet): 0% | Affected (%) ([1]; 0.391 ppm in artificial diet): 0% | Affected (%) ([1]; 0.781 ppm in artificial diet): 0% | Affected (%) ([1]; 1.56 ppm in artificial diet): 0% | Affected (%) ([1]; 3.13 ppm in artificial diet): 0% | Affected (%) ([1]; 6.25 ppm in artificial diet): 0% | Affected (%) ([1]; 12.5 ppm in artificial diet): 0% | Affected (%) ([1]; 25.0 ppm in artificial diet): 0% | Affected (%) ([1]; 50.0 ppm in artificial diet): 0% | Affected (%) ([1]; 100 ppm in artificial diet): 0% | Affected (%) ([1]; 200 ppm in artificial diet): 0% | gel shift: apparent size of the RNA band with increasing CPP [2]: binding of CyLoP molecules to the RNA

From patent publication US20240041050A1, “CELL PENETRATING PEPTIDE MEDIATED RNA TRANSDUCTION WITHIN INSECT CELLS” (PIONEER HI-BRED INTERNATIONAL, INC., priority 2020, published 2024)
